Results taken from patent US20130065227A1, “METHODS OF INCREASING MACROPINOCYTOSIS IN CANCER CELLS” (priority 2010, published 2013).

Experiments:
Hs27 cells = assay: FL-AS1411 uptake after tAS1411 pre-treatment (flow cytometry); format: cell-based, human; conditions: 10 μM pre-treatment for 24 h, then 10 μM FL-AS1411 2 h
Method: FIG. 12 are graphs showing the effectiveness of pre-treatment of cells with a GRO. DU145 or Hs27 cells were treated with or without 10 μM tAS1411 in complete DMEM medium at 37° C. for 24 h. After treatment, cells were washed, fresh complete medium containing 10 μM FL-AS1411 was added, and cells were incubated for a further 2 h at 37° C. After incubation, cells were incubated on ice with 1 mg/ml PI in PBS, harvested, fixed and immediately analyzed by flow cytometry.
To analyze uptake of the oligodeoxynucleotides or dextran-10K (macropinocytic marker) by flow cytometry, 2×10^5 cells in fresh supplemented culture medium (2.5 ml) were plated into 6-well plates for 18 h. […]
(§1) AS1411 causes a change in cancer cell morphology that is characterized by vacuolization, irregular nuclei, and swollen cells (Xu et al., 2001, J. Biol. Chem., 276:43221-30). […] To test this idea, DU145 cells were pre-treated for 24 h with tAS1411, then added FL-AS1411 and evaluated uptake after an additional 2 h using flow cytometry. […] This idea is not necessarily inconsistent with the time course data shown in FIG. 1A because the fluorescence signal may decrease over time for a number of reasons, including exocytosis of the ligand and fluorescence quenching due to protein binding or environmental factors (the fluorophore used for flow cytometry is particularly sensitive to acidic environments).

DU145 cells = assay: as above; format: cell-based; conditions: 10 μM pre-treatment for 24 h, then 10 μM FL-AS1411 2 h
Method: FIG. 6 are graphs showing that nucleolin regulates AS1411-induced stimulation of macropinocytosis. DU145 cells were untreated (no transfection) or transfected, without siRNA (mock), or with 30 nM of one of three different nucleolin siRNAs (NCL1, NCL2, NCL3) or a control siRNA (scramble). 48 h after transfection, cells were incubated with 10 μM tAS1411, 10 μM tCRO, or no oligonucleotide in complete DMEM medium at 37° C. for 24 h. (Panel A) After treatment, cell medium was changed for fresh complete medium containing 0.2 mg/ml dextran-10K labeled with Alexa Fluor 488 (green) and incubated for 30 min at 37° C. […] After incubation, cells were harvested and analyzed by flow cytometry. Mean fluorescence was normalized to “not transfected” control (Panel A) or to no pre-treatment control (Panel B). […]
FIG. 12 are graphs showing the effectiveness of pre-treatment of cells with a GRO. […] After incubation, cells were incubated on ice with 1 mg/ml PI in PBS, harvested, fixed and immediately analyzed by flow cytometry. […]
AS1411 causes a change in cancer cell morphology that is characterized by vacuolization, irregular nuclei, and swollen cells (Xu et al., 2001, J. Biol. Chem., 276:43221-30). […] To test this idea, DU145 cells were pre-treated for 24 h with tAS1411, then added FL-AS1411 and evaluated uptake after an additional 2 h using flow cytometry. […]

DU145 = assay: Stimulation of macropinocytosis (dextran uptake); format: cell-based
Method: (Panel A) DU145 cells were treated with 10 μM tAS1411 or 10 μM tCRO or no oligonucleotide in complete DMEM medium at 37° C. for the time indicated. After treatment, cell medium was changed for fresh complete medium containing 0.2 mg/ml dextran-10K labeled with Alexa Fluor 488, and cells were incubated for 30 min at 37° C. After incubation, cells were harvested and analyzed by flow cytometry to determine dextran uptake. (Panel B) The same experiment was performed using Hs27 cells. (Panel C) DU145 cells were treated with 10 μM tAS1411 or 10 μM tCRO or no oligonucleotide in complete DMEM medium at 37° C. for 48 h. After treatment, cell medium was changed for fresh complete medium containing 0.2 mg/ml dextran-10K tagged with Alexa Fluor 488, and cells were incubated for 30 min at 37° C. Then, cells were washed with cold PBS, added PBS containing 5 μg/ml PI and incubated on ice for 5 min. After washing with cold PBS, cells were fixed and the distribution of macropinocytic marker was visualized by confocal microscopy. The nucleus was stained with DAPI (blue). Scale bars, 10 μm. All experiments have been repeated at least three times. Data are mean of three independent samples; bars, SE; *(p<0.05).
FIG. 6 are graphs showing that nucleolin regulates AS1411-induced stimulation of macropinocytosis. DU145 cells were untreated (no transfection) or transfected, without siRNA (mock), or with 30 nM of one of three different nucleolin siRNAs (NCL1, NCL2, NCL3) or a control siRNA (scramble). 48 h after transfection, cells were incubated with 10 μM tAS1411, 10 μM tCRO, or no oligonucleotide in complete DMEM medium at 37° C. for 24 h. (Panel A) After treatment, cell medium was changed for fresh complete medium containing 0.2 mg/ml dextran-10K labeled with Alexa Fluor 488 (green) and incubated for 30 min at 37° C. (Panel B) After treatment, some cells were washed, fresh complete medium containing 10 μM FL-AS1411 added and incubated for 2 h at 37° C. After incubation, cells were harvested and analyzed by flow cytometry. Mean fluorescence was normalized to “not transfected” control (Panel A) or to no pre-treatment control (Panel B). All experiments have been repeated at least three times. Data are the mean of three independent samples; bars, SE; *(p<0.05).
FIG. 11 is a graph showing a comparison between AS1411 and tAS1411 in the ability to stimulate macropinocytosis. DU145 cells were plated 18 hr before treatment with different concentrations (0, 5, 10, or 15 μM) of AS1411, tAS1411 or tCRO in complete DMEM medium at 37° C. for 48 h. After treatment, cell medium was changed for fresh complete medium containing 0.2 mg/ml dextran-10K labeled with Alexa Fluor 488, and cells were incubated for 30 min at 37° C. After incubation, cells were incubated on ice with […] PI in PBS, harvested, fixed and immediately analyzed by flow cytometry.
(§2) To analyze uptake of the oligodeoxynucleotides or dextran-10K (macropinocytic marker) by flow cytometry, 2×10^5 cells in fresh supplemented culture medium (2.5 ml) were plated into 6-well plates for 18 h. After complete adhesion, the cells were incubated with 5′-FAM tagged oligodeoxynucleotides or Alexa Fluor 488 tagged dextran-10K and incubated as indicated in the Description of the Drawings. Cells were washed once with ice-cold PBS, incubated with 1 μg/ml 7-amino-actinomycin D (7-AAD) for 5 min on ice or 1 μg/ml propidium iodide (PI), and washed twice with ice-cold PBS. Cells were then treated with 0.01% trypsin/0.5 mM EDTA (300 μl) for 3 min prior addition 3 ml supplemented culture medium. The cells were then centrifuged and resuspended in 0.5 ml of 1% paraformaldehyde for analysis by flow cytometry using a FACScalibur cytometer (BD Biosciences, Mountain View, Calif.).
AS1411 causes a change in cancer cell morphology that is characterized by vacuolization, irregular nuclei, and swollen cells (Xu et al., 2001, J. Biol. Chem., 276:43221-30). […]

MCF10A = assay: Stimulation of macropinocytosis (dextran uptake); format: cell-based, human; conditions: MCF-10A, 10 μM for 48 hr or 72 hr
Method: FIG. 10 are graphs showing the stimulation of macropinocytosis by GROs. Breast carcinoma cells (MDA-MB-231, MCF-7) or non-malignant breast epithelial cells (MCF10A) cells were plated 18 hr before treatment with 10 μM tAS1411 or 10 μM tCRO or water in complete DMEM medium at 37° C. for 48 hr or 72 hr. After treatment, cell medium was changed for fresh complete medium containing 0.2 mg/ml dextran-10K labeled with Alexa Fluor 488 and cells were incubated for 30 min at 37° C. Cells were then incubated on ice with 1 mg/ml PI in PBS, harvested, and analyzed by flow cytometry. Uptake was normalized to no pre-treatment controls and bars show the mean and SE of three independent experiments. […]
as §1, with “environments). […]” for “environments).”

MCF7 = assay: Stimulation of macropinocytosis (dextran uptake); format: cell-based; conditions: MCF-7, 10 μM for 48 hr or 72 hr
Method: (§3) FIG. 10 are graphs showing the stimulation of macropinocytosis by GROs. Breast carcinoma cells (MDA-MB-231, MCF-7) or non-malignant breast epithelial cells (MCF10A) cells were plated 18 hr before treatment with 10 μM tAS1411 or 10 μM tCRO or water in complete DMEM medium at 37° C. for 48 hr or 72 hr. After treatment, cell medium was changed for fresh complete medium containing 0.2 mg/ml dextran-10K labeled with Alexa Fluor 488 and cells were incubated for 30 min at 37° C. Cells were then incubated on ice with 1 mg/ml PI in PBS, harvested, and analyzed by flow cytometry. Uptake was normalized to no pre-treatment controls and bars show the mean and SE of three independent experiments.
as §2
(§4) AS1411 causes a change in cancer cell morphology that is characterized by vacuolization, irregular nuclei, and swollen cells (Xu et al., 2001, J. Biol. Chem., 276:43221-30). Therefore, the effect of AS1411 on macropinocytosis in DU145 cells and non-malignant Hs27 cells was investigated. […] As in all of the flow cytometry experiments, cells were gated to exclude permeable cells, discounting the possibility that this increase was due to cell death. […] One implication of the finding that AS1411 causes hyperstimulation of macropinocytosis is that treatment of AS1411 might actually promote its own internalization by cancer cells. To test this idea, DU145 cells were pre-treated for 24 h with tAS1411, then added FL-AS1411 and evaluated uptake after an additional 2 h using flow cytometry. […] This idea is not necessarily inconsistent with the time course data shown in FIG. 1A because the fluorescence signal may decrease over time for a number of reasons, including exocytosis of the ligand and fluorescence quenching due to protein binding or environmental factors (the fluorophore used for flow cytometry is particularly sensitive to acidic environments). […]

MDA-MB-231 = assay: Stimulation of macropinocytosis (dextran uptake); format: cell-based; conditions: MDA-MB-231, 10 μM for 48 hr or 72 hr
Method: as §3, §2, §4

Hs27 = assay: Stimulation of macropinocytosis (dextran uptake); format: cell-based, human; conditions: 10 μM for 24, 48, or 72 h, flow cytometry
Method: (Panel A) DU145 cells were treated with 10 μM tAS1411 or 10 μM tCRO or no oligonucleotide in complete DMEM medium at 37° C. for the time indicated. After treatment, cell medium was changed for fresh complete medium containing 0.2 mg/ml dextran-10K labeled with Alexa Fluor 488, and cells were incubated for 30 min at 37° C. After incubation, cells were harvested and analyzed by flow cytometry to determine dextran uptake. (Panel B) The same experiment was performed using Hs27 cells. (Panel C) DU145 cells were treated with 10 μM tAS1411 or 10 μM tCRO or no oligonucleotide in complete DMEM medium at 37° C. for 48 h. […]
as §1, with “environments). […]” for “environments).”

In the case of “5′-d(TTTGGTGGTGGTGGTTGTGGTGGTGGTGG) [tAS1411]”, the “uptake of FL-AS1411 after pre-treatment” value (Hs27 cells) is reported as “no comparable increase”, the “uptake of FL-AS1411 after pre-treatment” value (DU145 cells) is reported as “increase in the uptake of FL-AS1411” and the “uptake of the macropinocytic marker, dextran, after treatment” value (DU145; 10 μM for 24, 48, or 72 h, flow cytometry) is reported as “significant increment in the uptake of the macropinocytic marker, dextran”. The “dextran uptake by confocal microscopy” value (DU145; 10 μM for 48 h, versus untreated or CRO-treated cells) was “higher dextran uptake confined in large vesicle”, the stimulation of macropinocytosis (MCF10A) was “much reduced effect” and the stimulation of macropinocytosis (MCF7) was “induce hyperstimulation of macropinocytosis”. For the same substance, the stimulation of macropinocytosis (MDA-MB-231) was “induce hyperstimulation of macropinocytosis” and the “uptake of the macropinocytic marker, dextran, after treatment” value (Hs27) was “no increase”.
